For one assay, the system named is GM00371 cells. The experiment in a line: Viability assay (Cell titer glo) in the 3-HIB assay. Conditions: Homo sapiens, 24 h, read-out: 3HIB INHIBITION IC50 (μM) MEAN GM00371 cells Viablility Assay. Format: cell-based, human. In outline: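 GM00371 cells (10,000/well, EMEM/15% FBS) were exposed for 24 h at 37 °C to compounds in 1:3 serial dilution from 30 μM top concentration in EMEM. Reference Compound B at 30 μM served as maximal-toxicity control. Viability read as CellTiter-Glo luminescence.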
A general note: In ATP-based viability assays light output follows the ATP content of the culture.

A short description of assay [1]: 3-HIB assay in vitro, direct MS assay of conditioned media. As to conditions: Homo sapiens, 24 h, GM00371 cells, read-out: 3HIB INHIBITION IC50 (μM) MEAN GM00371 cells Direct MS Assay. Format: cell-based, human. Here is the method: Cell Plating: Cells (Coriell Institute GM00371 cells) were plated (96-well clear bottom sterile plate; Greiner 655098) at 10,000 cells/0.1 mL in Eagle's minimum essential medium (EMEM)/15% FBS (Gibco 16000-044) with a Combi dispenser in a cell culture hood and incubated at 37° C. and 5% CO2 overnight.
Compound Dilution: Compound were prepared as 33.3× intermediate dilution in DMSO in 96 well round polystyrene plates. For 30 μM final maximum start with 30 μL of 10 mM in DMSO. 10-12 1:3 serial dilutions were prepared from left to right (20 μL+40 μL DMSO). A 10× secondary dilution was prepare in EMEM by taking 7.5 μL 33.3× and transfer to replicate 96 well round polystyrene plates and then adding 242.5 μL EMEM A 1× final dilution in EMEM was prepared by taking 50 μL 10× dilution and transferring to replicate 96 well polypropylene assay block (Costar 3956) and adding 450 μL EMEM A control was prepared for maximal compound inhibition by taking 20 μL 10 mM Reference Compound A and adding 40 μL DMSO for a concentration of 3.3 mM To 7.5 μL of the 3.3 mM Reference Compound A solution and added 242.5 μL EMEM to make a 100 μM solution. The subsequent Reference Compound A solution was diluted with EMEM to achieve a final concentration of 10 μM. The structure of Reference Compound A is:
A control was prepared for maximal compound toxicity by taking 7.5 μL Reference Compound B and 242.5 μL EMEM to make […]. 50 μL of that 100 μM Reference Compound B solution was combined with 450 μL EMEM to achieve a concentration of 30 μM. The structure of Reference Compound B is
A DMSO Control was prepared by dilution 7.5 μL with 242.5 μL EMEM and taking 50 μL of the subsequent solution and diluting with 450 μL EMEM.
Compound Treatment: Media was aspirated from the cells and 100 μL of D-PBS (ThermoFisher 14190144) was added and then removed. 100 μL of diluted compound was added to the cells in the place and the cells were incubated at 37° C. and 5% CO2 for 24 hours.
Collection of Conditioned Media: For 3HIB MS detection: 20 μL conditioned media was removed from the cells and was transferred to a labeled replicate 96 well polypropylene assay plate (VWR 62408-946). And the plate was heat sealed and stored at −80° C.
3HIB Derivatization (Generalized SOP): The media collected for 3HIB MS detection was derivatized under the following conditions. Buffer: 0.1M 1-Ethyl-3-(3-dimethylaminopropyl)carbodiimide (EDC) dissolved in 0.1 M 2-(N-morpholino)ethanesulfonic acid ([…]) adjusted to pH 5.6. Buffer prep: weighed 10.6 g MES (Sigma #M-5287) per 500 mL HPLC grade H2O. Stored at 4° C.; 0.1M EDC: Weighed 1.971 g EDC (#E-1769) per 100 mL MES. Adjusted pH to 5.6 with ˜40 drops of 1N NaOH and stored at 4° C. Buffer has a short half-life should be used within two weeks.
Derivatization: To 20 μL sample was added 60 μL 5 uM 3HIB-4C13 internal standard followed by 20 μL EDC in MES and 100 μL MES. The plate was sealed and incubate at 50° C. for […] then centrifuged at 4000 rpm at 6° C. for 10 minutes. LC-MS analysis was then conducted and the data was processed using standard methods.

Another assay has as its target T1, BCAT2 (Homo sapiens, UniProt O15382).
T1 sequence (O15382 28-392): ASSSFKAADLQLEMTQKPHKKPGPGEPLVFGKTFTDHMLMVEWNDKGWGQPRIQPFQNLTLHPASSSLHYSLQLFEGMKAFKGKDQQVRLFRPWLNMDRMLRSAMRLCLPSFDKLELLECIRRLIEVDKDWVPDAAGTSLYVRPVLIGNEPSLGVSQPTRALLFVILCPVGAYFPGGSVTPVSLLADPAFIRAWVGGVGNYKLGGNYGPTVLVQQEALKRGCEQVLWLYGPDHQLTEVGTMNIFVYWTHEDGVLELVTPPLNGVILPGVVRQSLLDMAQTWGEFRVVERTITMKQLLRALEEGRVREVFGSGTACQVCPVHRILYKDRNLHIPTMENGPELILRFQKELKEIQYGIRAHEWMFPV
The experiment in a line: BCAT2 enzyme inhibition (human). Format: biochemical. In outline: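 Cell-free coupled fluorescent assay: human BCATm converts branched-chain amino acids and α-ketoglutarate to L-glutamate, which L-glutamate oxidase and HRP link to resorufin formation from Amplex Red; activity taken as reduced glutamate signal.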

Molecules are shown by their SMILES.

In general, IC50 refers to the midpoint of a concentration-inhibition curve. Take `CNC(=O)c1ccc2c(c1)nc(-c1c(F)cccc1F)n2[C@H]1CCC[C@@H](NC(=O)c2ccc(C#N)s2)C1` [Compound 174]: the IC50 in the assay with GM00371 cells was 0.5 to 1 µM; in assay [1], 0.1 to 0.5 µM; at BCAT2 it was under 100 nM.
As to `CNC(=O)c1ccc2c(c1)nc(-c1cccs1)n2[C@H]1CCC[C@@H](NC(=O)c2ccc(C#N)s2)C1` [Compound 181], the 50% inhibitory concentration (IC50) in the assay with GM00371 cells was at least 1 µM; in assay [1], at least 1 µM; against BCAT2 it was under 100 nM.
Consider `CNC(=O)c1ccc2c(c1)nc(-c1ncccc1C#N)n2[C@H]1CCC[C@@H](NC(=O)c2ccc(Br)s2)C1` [Compound 185], for which the half-inhibitory concentration (IC50) in the assay with GM00371 cells is 0.5 to 1 µM; in assay [1] it was 0.5 to 1 µM; against BCAT2 it was under 100 nM.
Consider `CNC(=O)c1ccc2c(c1)nc(-c1ccccn1)n2[C@H]1CC[C@@H](NC(=O)c2ccc(C#N)s2)C1` [Compound 131], for which the IC50 with GM00371 cells was at least 1 µM; in assay [1] it was at least 1 µM; at BCAT2, 500 to 1000 nM.
As for `CNC(=O)c1ccc2c(c1)nc(-c1ccccn1)n2[C@@H]1CCC[C@H](NC(=O)c2ccc(C(F)(F)F)s2)C1` [Compound 113], the results for the half-inhibitory concentration (IC50) (in the assay with GM00371 cells; in assay [1]; on BCAT2) were 0.5 to 1 µM, at least 1 µM and under 100 nM, respectively.
The corresponding values for `CNC(=O)c1ccc2c(c1)nc(-c1ccccc1OC)n2[C@H]1CCC[C@@H](NC(=O)c2ccc(Br)s2)C1` [Compound 126] are at least 1 µM, 0.1 to 0.5 µM and under 100 nM.
As for `CNC(=O)c1ccc2c(c1)nc(-c1c(O)cccc1F)n2[C@H]1CCC[C@@H](NC(=O)c2ccc(Cl)s2)C1` [Compound 177], the figures for the IC50 (in the assay with GM00371 cells; in assay [1]; against BCAT2) were 0.1 to 0.5 µM, under 0.1 µM and under 100 nM, respectively.
Turning to `CNC(=O)c1ccc2c(c1)nc(-c1c(O)cccc1F)n2[C@H]1CCC[C@@H](NC(=O)c2ccc(C#N)s2)C1` [Compound 172], the IC50 in the assay on GM00371 cells was 0.1 to 0.5 µM; in assay [1] it was 0.1 to 0.5 µM; against BCAT2, under 100 nM.
Turning to `CNC(=O)c1ccc2c(c1)nc(-c1ccccn1)n2[C@@H]1CCC[C@H](NC(=O)c2cccc(Br)c2)C1` [Compound 116], the results for the concentration for half-maximal inhibition (IC50) (in the assay on GM00371 cells; in assay [1]; at BCAT2) were at least 1 µM, at least 1 µM and over 1000 nM, respectively.
`O=C(N[C@H]1CCC[C@@H](n2c(-c3ccccn3)nc3cc(C(F)(F)F)ccc32)C1)c1ccc(Br)s1` [Compound 140]: the results for the IC50 (with GM00371 cells; in assay [1]; against BCAT2) were 0.5 to 1 µM, 0.5 to 1 µM and 100 to 500 nM, respectively.
For the compound `CNC(=O)c1ccc2c(c1)nc(-c1ncccc1C#N)n2[C@H]1CCC[C@@H](NC(=O)c2ccc(Cl)s2)C1` [Compound 192], the IC50 with GM00371 cells was 0.5 to 1 µM; in assay [1], 0.5 to 1 µM; at BCAT2 it was under 100 nM.
`CNC(=O)c1ccc2c(c1)nc(-c1ncccc1O)n2[C@H]1CCC[C@@H](NC(=O)c2ccc(Br)s2)C1` [Compound 152]: the IC50 is 0.1 to 0.5 µM with GM00371 cells, 0.1 to 0.5 µM in assay [1] and under 100 nM on BCAT2.
For the compound `CNC(=O)c1ccc2c(c1)nc(-c1ccccn1)n2[C@H]1CCC[C@@H](NC(=O)c2ccc(Cl)s2)C1` [Compound 141], the half-inhibitory concentration (IC50) in the assay on GM00371 cells is at least 1 µM; in assay [1] it was at least 1 µM; against BCAT2, under 100 nM.
`CNC(=O)c1ccc2c(c1)nc(-c1ncccc1C#N)n2[C@H]1CCC[C@@H](NC(=O)c2ccc(C#N)s2)C1` [Compound 178]: the half-maximal inhibitory concentration (IC50) in the assay on GM00371 cells is at least 1 µM; in assay [1] it was at least 1 µM; against BCAT2 it was under 100 nM.
As to `N#Cc1ccc(C(=O)N[C@@H]2CCC[C@H](n3c(-c4ccccn4)nc4cc(CO)ccc43)C2)s1` [Compound 133], the figures for the concentration for half-maximal inhibition (IC50) (in the assay with GM00371 cells; in assay [1]; against BCAT2) were at least 1 µM, at least 1 µM and 100 to 500 nM, respectively.
On to `O=C(N[C@@H]1CCC[C@H](n2c(-c3ccccn3)nc3cc(Cl)ncc32)C1)c1ccc(Br)s1` [Compound 296], for which the concentration for half-maximal inhibition (IC50) with GM00371 cells was 0.5 to 1 µM; in assay [1] it was 0.1 to 0.5 µM; against BCAT2 it was under 100 nM.
The matching figures for `CNC(=O)c1ccc2c(c1)nc(-c1ccc(F)cc1F)n2[C@H]1CCC[C@@H](NC(=O)c2ccc(Br)s2)C1` [Compound 176]: 0.1 to 0.5 µM, 0.1 to 0.5 µM and under 100 nM.
In the case of `CNC(=O)c1ccc2c(c1)nc(-c1ccccc1SC(F)(F)F)n2[C@H]1CCC[C@@H](NC(=O)c2ccc(Br)s2)C1` [Compound 128], the IC50 in the assay on GM00371 cells was at least 1 µM; in assay [1] it was at least 1 µM; at BCAT2 it was 500 to 1000 nM.
Consider `CNC(=O)c1ccc2c(c1)nc(-c1cc(F)ccc1F)n2[C@H]1CCC[C@@H](NC(=O)c2ccc(Br)s2)C1` [Compound 175], for which the IC50 in the assay on GM00371 cells is 0.1 to 0.5 µM; in assay [1] it was under 0.1 µM; against BCAT2 it was under 100 nM.
For the compound `CNC(=O)c1ccc2c(c1)nc(-c1ccccc1NC(C)=O)n2[C@H]1CCC[C@@H](NC(=O)c2ccc(Br)s2)C1` [Compound 129], the IC50 in the assay on GM00371 cells is at least 1 µM; in assay [1], at least 1 µM; against BCAT2, 100 to 500 nM.
For the compound `CNC(=O)c1ccc2c(c1)nc(-c1ccc(F)cc1O)n2[C@H]1CCC[C@@H](NC(=O)c2ccc(C#N)s2)C1` [Compound 188], the IC50 in assay [1] is 0.1 to 0.5 µM; against BCAT2 it was under 100 nM.
`CNC(=O)c1ccc2c(c1)nc(-c1ccccc1SC(F)(F)F)n2[C@H]1CCC[C@@H](NC(=O)c2ccc(C#N)s2)C1` [Compound 127]: the IC50 was at least 1 µM in the assay with GM00371 cells, at least 1 µM in assay [1] and 500 to 1000 nM against BCAT2.
Turning to `CNC(=O)c1ccc2c(c1)nc(-c1ccccn1)n2[C@@H]1CCC[C@H](NC(=O)c2ccc([N+](=O)[O-])s2)C1` [Compound 107], the concentration for half-maximal inhibition (IC50) is at least 1 µM in the assay with GM00371 cells, at least 1 µM in assay [1] and 500 to 1000 nM against BCAT2.
For `CNC(=O)c1ccc2c(c1)nc(-c1ccccc1OC)n2[C@H]1CCC[C@@H](NC(=O)c2ccc(C#N)s2)C1` [Compound 124], the IC50 is at least 1 µM with GM00371 cells, at least 1 µM in assay [1] and under 100 nM at BCAT2.

For the origin of these results see US20220274967A1, “BCAT MODULATION” (Icagen, LLC, priority 2019, published 2022).
